Reference: publication PMC9605374 (Marine Drugs, 2022)

Experiments:
[1] = tested on: PC3-DR; assay: MTT assay, cell viability; assay type: cell-based, human
Excerpt: To examine the anticancer potential and selectivity of NB, we used a panel of six human prostate cancer cell lines, harboring different levels of treatment resistance to representatively reflect the heterogeneity of the disease. […] Additionally, four human noncancer cells lines were utilized in order to determine the selectivity of NB towards prostate cancer cells, i.e., prostate noncancer PNT2 and RWPE-1 cells, human embryonic kidney HEK 293T cells, and human fibroblasts MRC-9. The different cell lines were treated with NB and the cell viability was examined using MTT assay (Figure 1). The mean IC50 of NB and docetaxel (used as a reference substance) in noncancerous cell lines was divided by the mean IC50 in the prostate cancer cell lines to determine the selectivity index (SI).
The MTT assay was used to monitor the effect of the drugs on cell viability in terms of metabolic activity, as previously reported. First, preincubation of the cells in 96-well plates (6 × 10^3 cells/well in 100 μL/well) was performed overnight in the correspondent culture medium. Next, the medium was exchanged for fresh medium containing the investigated compounds or a vehicle (100 μL/well). Cells were then incubated for 48 h, unless otherwise stated. Then, 10 μL/well of 3-(4,5-dimethylthiazol-2-yl)-2,5-diphenyltetrazolium bromide reagent (MTT, 5 mg/mL) were added. After 2–4 h of additional incubation the media was removed, and the plates were dried. Finally, 50 μL/well of DMSO were added to solve the formed formazan crystals produced by the metabolic active cells and Infinite F200PRO reader (TECAN, Männedorf, Switzerland) was used to measure the cell viability. The results were proceeded with a GraphPad Prism software v.9.1.1 (GraphPad Software, San Diego, CA, USA). Cells treated with the solvent of the drugs alone were used as a control (100% alive cells). The effect of the drugs on cell viability is represented as IC50.

[2] = tested on: 22Rv1; assay: Colony formation assay; assay type: cell-based, human; settings: 22Rv1, 48 h treatment then 14 days, nanomolar concentrations
Description: (§1) Next, we investigated the effect of NB on the ability of cancer cells to form colonies from single cells using a colony formation assay and a preplating mode. […] However, this speculation awaits further confirmation in vivo.
(§2) Figure 3 Colony formation assay. The human cancer cells were seeded in 6-well plates and treated for 48 h with the indicated concentrations of NB. Then, the media was exchanged, and the plates were incubated for 14 days, which was followed by fixation, staining, and counting. Number of replicates n = 3. Statistical significance: * p < 0.05 (ANOVA).

[3] = tested on: PC3; assay: Colony formation assay; assay type: cell-based, human; settings: PC3, 48 h treatment then 14 days, nanomolar concentrations
Description: as §1, §2

[4] = tested on: VCaP; assay: Colony formation assay; assay type: cell-based, human; settings: 48 h treatment then 14 days, nanomolar concentrations
Description: as §1, §2

[5] = tested on: ERK1/2 in 22Rv1 cells; assay: Western blotting, MAPK activation; assay type: cell-based, human; settings: 22Rv1, 1 µM or 10 µM
Description: (§3) We examined several time points, specifically, 15 min, 2 h, and 48 h (Figure 6).
(§4) Figure 6 Validation of kinome analysis data. 22Rv1 cells were treated with 1 µM or 10 µM of NB for the indicated time. The protein expression was analyzed by Western blotting using total protein load equal to 30 µg/slot. α-Tubulin was used as a loading control.
(§5) The Western blot assay was executed as previously described: 1 × 10^6 cells were seeded in Petri dishes (ø 6 cm, 5 mL/dish) and incubated overnight. On the next day, the cells were treated with the compounds in fresh culture media (5 mL/dish) for the indicated time. Next, cells were harvested with a cell scraper and lysed in lysis buffer including protease and phosphatase inhibitors cocktail (Roche, Mannheim, Germany). Cell debris were removed from the protein lysates via centrifugation. Afterwards, the cell-free protein mixtures were separated in gradient ready-made Mini-PROTEAN® TGX Stain-Free^TM gels (Bio-Rad, Hercules, CA, USA) using SDS-PAGE (sodium dodecylsulfate polyacrylamide gel electrophoresis). Then, the proteins were blotted onto ø 0.2 µm pore PVDF membrane. The membrane was blocked and consequently treated with primary and secondary antibodies for protein detection. The signals were detected using the ECL chemiluminescence system (Thermo Scientific, Rockford, IL, USA).

[6] = tested on: JNK1/2 in 22Rv1 cells; assay: Western blotting, MAPK activation; assay type: cell-based, human; settings: 22Rv1, 1 µM or 10 µM
Description: as §3, §4, §5

[7] = tested on: p38 in 22Rv1 cells; assay: Western blotting, MAPK activation; assay type: cell-based, human; settings: 22Rv1, 1 µM or 10 µM, 2 h
Description: as §3, §4, §5

[8] = tested on: 22Rv1 cells; assay: Drug combination study NB with MAPK inhibitors, MTT assay, SynergyFinder 2.0; assay type: cell-based; settings: Homo sapiens, 22Rv1, 24 h, 24 h; for inhibition at 0.8 µM: 22Rv1, NB alone 0.8 μM; for inhibition at 3.1 µM: 22Rv1, NB alone 3.1 μM; for inhibition at 12.5 µM: 22Rv1, NB alone 12.5 μM; for inhibition at 50 µM: 22Rv1, NB alone 50 μM
Excerpt: Whether activation of MAPKs contribute to cell death or survival depends not only on the cellular context, but also on the nature of the activating stimuli. Thus, to reveal the function of JNK1/2 and p38 in the anticancer effect of NB, we co-treated 22Rv1 cells with NB and specific inhibitors of the above-mentioned MAPKs. […] As MEK1/2 kinase directly and exclusively activates ERK1/2, PD98039 inhibitor is often used as an ERK1/2 inhibitor [38]. Thus, an inactivation of MEK1/2 leads solely to an inhibition of ERK1/2 [38]. Since the inhibitors themselves exert cytotoxic effects in cancer cells, we used a Chou–Talalay method to distinguish between synergism, additive effects, or antagonistic effects of the particular MAPK inhibitor on the compound bioactivity. For this, using an MTT assay, we determined a cytotoxic effect on various concentrations of NB, MAPK inhibitors, and their combinations in 22Rv1 cells. The viability data were further analyzed using the SynergyFinder v. 2.0 software (Network Pharmacology for Precision Medicine in the Research Program of System Oncology, Faculty of Medicine at University of Helsinki, Helsinki, Finland) and a Zero interaction potency (ZIP) reference model (Figure 7).
The experiments were carried out as previously reported. […] 22Rv1 cells (6 × 10^3 cells/well in 96-well plates) were simultaneously treated with NB and docetaxel; or pretreated with MAPK inhibitors for 1 h following treatment with NB in the total media volume of 100 µL/well. Following 24 h of incubation, the viability of the cells treated with individual drugs as well as their combinations was determined using MTT assay. […] Red areas (positive δ-values) and green areas (negative δ-values) indicate synergism and antagonism, respectively.

[9] = tested on: panel of 14 human cancer cell lines and one prostate cancer cell line DU145; set-up: method as in PMID 26039736; settings: panel of 14 human cancer cell lines and DU145, no significant anticancer activity; cited from earlier work

COc1ccc(C2SSC34CC5(O)C(Cl)C=CC(O)C5ON3C(=O)C2N(C)C4=O)c(O)c1OC (stereo not shown) [NB, N-methylpretrichodermamide B]
IC50 in PC3-DR compared to the parental PC3 cells ([1]; 48 h): twofold lower | IC50 ([1]; Homo sapiens, PC3-DR, 48 h of treatment, mean ± SD): 3.63 ± 1.03 µM | colony-formation ability [2]: inhibit the colony-formation ability | colony-formation ability [3]: inhibit the colony-formation ability | colony-formation ability [4]: inhibit the colony-formation ability | activation of ERK1/2 [5]: no activation | JNK1/2 phosphorylation ([6]; 2 h): pronounced JNK1/2 phosphorylation | JNK1/2 phosphorylation ([6]; 48 h): no phosphorylation (or even slight downregulation) | activation of p38 [7]: activation of p38 | inhibition at 0.8 µM ([8]; matrix with PD98059 (0 μM)): 28.5% | inhibition at 0.8 µM ([8]; matrix with SB203580 (0 μM)): 29.1% | inhibition at 0.8 µM ([8]; matrix with SP600125 (0 μM)): 17.3% | inhibition at 3.1 µM ([8]; matrix with PD98059 (0 μM)): 35.2% | inhibition at 3.1 µM ([8]; matrix with SB203580 (0 μM)): 33.3% | inhibition at 3.1 µM ([8]; matrix with SP600125 (0 μM)): 25.2% | inhibition at 12.5 µM ([8]; matrix with PD98059 (0 μM)): 43.4% | inhibition at 12.5 µM ([8]; matrix with SB203580 (0 μM)): 48.2% | inhibition at 12.5 µM ([8]; matrix with SP600125 (0 μM)): 40.5% | inhibition at 50 µM ([8]; matrix with PD98059 (0 μM)): 51.9% | inhibition at 50 µM ([8]; matrix with SB203580 (0 μM)): 54.9% | inhibition at 50 µM ([8]; matrix with SP600125 (0 μM)): 41% | IC50 [9]: > 10 µM
